From paper PMC7118123, “Evidence for functional selectivity in TUDC- and norUDCA-induced signal transduction via α5β1 integrin towards choleresis” (Scientific Reports, 2020) come the findings set out here.

The target in this assay is T1, α5β1 integrin (Homo sapiens, UniProt P05556+P08648).
T1 construct: gene ITGA5; soluble human α5β1-integrin (R&D); with integrin α5 (ITGA5, P08648)
Nature of the assay: competitive ELISA-like solid-phase binding assay against immobilized fibronectin. On the technique in general: An ELISA detects its analyte on a solid surface through an enzyme-linked reagent.

`C[C@H](CCC(=O)NCCS(=O)(=O)O)[C@H]1CC[C@H]2[C@@H]3[C@@H](O)C[C@@H]4C[C@H](O)CC[C@]4(C)[C@H]3CC[C@]12C` [TUDC] registered a half-maximal inhibitory concentration (IC50) of 4.01 mM.
Under `C[C@H](CC(=O)O)[C@H]1CC[C@H]2[C@@H]3C(O)C[C@@H]4C[C@H](O)CC[C@]4(C)[C@H]3CC[C@]12C` (some centres unmarked) [norUDCA] stands 3.93 mM.

The IC50 is the concentration at which inhibition is half-maximal. The low end stands for greater potency in that assay, the high end for weaker potency in that assay.
